PubChem BioAssay (NCI)
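All cell lines were grown in 96-well plates and treated with compound for 48 hours. Abbreviation: GI50, concentration required for 50% inhibition of growth. The concentration for full growth arrest is given as TGI.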

Key:
Assay in all cases: NCI-60 cell line screen, 48 h
786-0 renal = test system: 786-0 renal
A498 renal = test system: A498 renal
A549 NSCLC = test system: A549 NSCLC
ACHN renal = test system: ACHN renal
BT-549 breast = test system: BT-549 breast
CAKI-1 renal = test system: CAKI-1 renal
CCRF-CEM leukemia = test system: CCRF-CEM leukemia
COLO 205 colon = test system: COLO 205 colon
DU-145 prostate = test system: DU-145 prostate
EKVX NSCLC = test system: EKVX NSCLC
HCC-2998 colon = test system: HCC-2998 colon
HCT-116 colon = test system: HCT-116 colon
HCT-15 colon = test system: HCT-15 colon
HL-60(TB) leukemia = test system: HL-60(TB) leukemia
HOP-62 NSCLC = test system: HOP-62 NSCLC
HOP-92 NSCLC = test system: HOP-92 NSCLC
HS 578T breast = test system: HS 578T breast
HT29 colon = test system: HT29 colon
KM12 colon = test system: KM12 colon
LOX IMVI melanoma = test system: LOX IMVI melanoma
M14 melanoma = test system: M14 melanoma
MALME-3M melanoma = test system: MALME-3M melanoma
MCF7 breast = test system: MCF7 breast
MDA-MB-231 breast = test system: MDA-MB-231 breast
MDA-MB-435 = test system: MDA-MB-435
MOLT-4 leukemia = test system: MOLT-4 leukemia
NCI-H226 lung = test system: NCI-H226 lung
NCI-H23 lung = test system: NCI-H23 lung
NCI-H460 lung = test system: NCI-H460 lung
NCI-H522 lung = test system: NCI-H522 lung
NCI/ADR-RES ovarian = test system: NCI/ADR-RES ovarian
OVCAR-3 ovarian = test system: OVCAR-3 ovarian
OVCAR-4 ovarian = test system: OVCAR-4 ovarian
OVCAR-5 ovarian = test system: OVCAR-5 ovarian
OVCAR-8 ovarian = test system: OVCAR-8 ovarian
PC-3 prostate = test system: PC-3 prostate
RPMI-8226 leukemia = test system: RPMI-8226 leukemia
SF-268 CNS = test system: SF-268 CNS
SF-295 CNS = test system: SF-295 CNS
SF-539 CNS = test system: SF-539 CNS
SK-MEL-2 melanoma = test system: SK-MEL-2 melanoma
SK-MEL-28 melanoma = test system: SK-MEL-28 melanoma
SK-MEL-5 melanoma = test system: SK-MEL-5 melanoma
SK-OV-3 ovarian = test system: SK-OV-3 ovarian
SN12C renal = test system: SN12C renal
SNB-19 CNS = test system: SNB-19 CNS
SNB-75 CNS = test system: SNB-75 CNS
SR leukemia = test system: SR leukemia
SW-620 colon = test system: SW-620 colon
T-47D breast = test system: T-47D breast
TK-10 renal = test system: TK-10 renal
U251 CNS = test system: U251 CNS
UACC-257 melanoma = test system: UACC-257 melanoma
UACC-62 melanoma = test system: UACC-62 melanoma
UO-31 renal = test system: UO-31 renal

`COc1cc2c(cc1OCCCN1CCN(CCCn3c4ccccc4c4ccccc43)CC1)N=C[C@@H]1CCCN1C2=O` was tested, and the GI50 (786-0 renal) was 280 nM, the TGI (786-0 renal) was 1010 nM and the GI50 (A498 renal) was 158 nM. For the same compound, the TGI (A498 renal) was 350 nM, the GI50 (A549 NSCLC) was 294 nM and the TGI (A549 NSCLC) was 1280 nM. It also gave a GI50 (ACHN renal) of 430 nM, a TGI (ACHN renal) of 1270 nM and a GI50 (BT-549 breast) of 58.7 nM. It also gave a TGI (BT-549 breast) of 288 nM, a GI50 (CAKI-1 renal) of 148 nM and a TGI (CAKI-1 renal) of 1170 nM. The GI50 (CCRF-CEM leukemia) was 21.8 nM, the TGI (CCRF-CEM leukemia) was 118 nM and the GI50 (COLO 205 colon) was 74.9 nM. The TGI (COLO 205 colon) was 235 nM, the GI50 (DU-145 prostate) was 33.5 nM and the TGI (DU-145 prostate) was 1140 nM. The GI50 (EKVX NSCLC) was 268 nM, the TGI (EKVX NSCLC) was 988 nM and the GI50 (HCC-2998 colon) was 120 nM. The TGI (HCC-2998 colon) was 370 nM, the GI50 (HCT-116 colon) was 156 nM and the TGI (HCT-116 colon) was 3930 nM. The GI50 (HCT-15 colon) was 623 nM, the TGI (HCT-15 colon) was 2150 nM and the GI50 (HL-60(TB) leukemia) was 24.9 nM. For the same compound, the GI50 (HOP-62 NSCLC) was 242 nM, the TGI (HOP-62 NSCLC) was 2460 nM and the GI50 (HOP-92 NSCLC) was 28.3 nM. The TGI (HOP-92 NSCLC) was 173 nM, the TGI (HS 578T breast) was 254 nM and the GI50 (HT29 colon) was 34.2 nM. It also gave a TGI (HT29 colon) of 289 nM, a GI50 (KM12 colon) of 157 nM and a TGI (KM12 colon) of 578 nM. For the same compound, the GI50 (LOX IMVI melanoma) was 93.7 nM, the TGI (LOX IMVI melanoma) was 426 nM and the GI50 (M14 melanoma) was 211 nM. It also gave a TGI (M14 melanoma) of 656 nM, a GI50 (MALME-3M melanoma) of 102 nM and a TGI (MALME-3M melanoma) of 432 nM. It also gave a GI50 (MCF7 breast) of 28.5 nM, a TGI (MCF7 breast) of 461 nM and a GI50 (MDA-MB-231 breast) of 217 nM. For the same compound, the TGI (MDA-MB-231 breast) was 1020 nM, the GI50 (MDA-MB-435) was 55.3 nM and the TGI (MDA-MB-435) was 121 nM. For the same compound, the GI50 (MOLT-4 leukemia) was 44 nM, the TGI (MOLT-4 leukemia) was 257 nM and the GI50 (NCI-H226 lung) was 323 nM. It also gave a TGI (NCI-H226 lung) of 1480 nM, a GI50 (NCI-H23 lung) of 122 nM and a TGI (NCI-H23 lung) of 599 nM. The GI50 (NCI-H460 lung) was 230 nM, the TGI (NCI-H460 lung) was 916 nM and the TGI (NCI-H522 lung) was 182 nM. For the same compound, the GI50 (NCI/ADR-RES ovarian) was 1370 nM, the TGI (NCI/ADR-RES ovarian) was 4930 nM and the GI50 (OVCAR-3 ovarian) was 66.9 nM. For the same compound, the TGI (OVCAR-3 ovarian) was 1160 nM, the GI50 (OVCAR-4 ovarian) was 37.4 nM and the TGI (OVCAR-4 ovarian) was 357 nM. The GI50 (OVCAR-5 ovarian) was 62.5 nM, the TGI (OVCAR-5 ovarian) was 648 nM and the GI50 (OVCAR-8 ovarian) was 273 nM. It also gave a TGI (OVCAR-8 ovarian) of 1550 nM, a GI50 (PC-3 prostate) of 58.5 nM and a TGI (PC-3 prostate) of 523 nM. It also gave a GI50 (RPMI-8226 leukemia) of 10.6 nM, a TGI (RPMI-8226 leukemia) of 48.3 nM and a GI50 (SF-268 CNS) of 36.2 nM. For the same compound, the TGI (SF-268 CNS) was 289 nM, the GI50 (SF-295 CNS) was less than 35.9 nM and the TGI (SF-295 CNS) was 235 nM. The GI50 (SF-539 CNS) was 225 nM, the TGI (SF-539 CNS) was 490 nM and the GI50 (SK-MEL-2 melanoma) was 159 nM. It also gave a TGI (SK-MEL-2 melanoma) of 539 nM, a GI50 (SK-MEL-28 melanoma) of 51.6 nM and a TGI (SK-MEL-28 melanoma) of 151 nM. It also gave a GI50 (SK-MEL-5 melanoma) of 202 nM, a TGI (SK-MEL-5 melanoma) of 472 nM and a GI50 (SK-OV-3 ovarian) of 320 nM. The TGI (SK-OV-3 ovarian) was 1270 nM, the GI50 (SN12C renal) was 243 nM and the TGI (SN12C renal) was 1510 nM. It also gave a GI50 (SNB-19 CNS) of 274 nM, a TGI (SNB-19 CNS) of 1170 nM and a GI50 (SNB-75 CNS) of less than 39.5 nM. It also gave a TGI (SNB-75 CNS) of 102 nM, a GI50 (SR leukemia) of 20.6 nM and a TGI (SR leukemia) of 12400 nM. The GI50 (SW-620 colon) was 25.4 nM, the TGI (SW-620 colon) was 141 nM and the GI50 (T-47D breast) was 206 nM. For the same compound, the TGI (T-47D breast) was 868 nM, the GI50 (TK-10 renal) was 86 nM and the TGI (TK-10 renal) was 1070 nM. It also gave a GI50 (U251 CNS) of 98.5 nM, a TGI (U251 CNS) of 1200 nM and a GI50 (UACC-257 melanoma) of 209 nM. The TGI (UACC-257 melanoma) was 461 nM, the GI50 (UACC-62 melanoma) was 162 nM and the TGI (UACC-62 melanoma) was 347 nM. For the same compound, the GI50 (UO-31 renal) was 174 nM and the TGI (UO-31 renal) was 491 nM.
